PMC9320607, “Synthesis, Biological Evaluation and Docking Studies of Ring-Opened Analogues of Ipomoeassin F” (Molecules, 2022)

What was measured:
HCT116 Sec61α-WT cells = experiment: Resazurin-based cell viability assay in HCT116 Sec61α-WT cells; design: species or system human; conditions: HCT116 Sec61α-WT cells, 72 h
Method: Parental (Sec61α-WT) […] All cell lines were maintained in a 5% CO2 humidified incubator at 37 °C. Cytotoxicity assays were performed in triplicate sets as previously described and viable cells were counted using an automated cell counter (Bio-Rad TC20) immediately before each experiment. Compound stock solutions in DMSO (10 mM) were diluted with supplemented culture media (MDA-MB-231 cells: high glucose DMEM; HCT116 Sec61α-WT and Sec61α-G80W cells: McCoy’s (modified) 5A) to make a series of gradient fresh working solutions at equal DMSO percentage immediately prior to each test. […] For MDA-MB-231 cells, the media were discarded and […] fresh medium containing 10% (v/v) alamarBlue HS cell viability reagent (resazurin stock solution) (ThermoFisher, Waltham, MA, USA, A50100) was added to each well. For Sec61α-WT or Sec61α-G80W HCT-116 cells, the media was not discarded and alamarBlue HS cell viability reagent (resazurin stock solution) (ThermoFisher, Waltham, MA, USA, A50100) was added to 10% (v/v). After that, all cells were incubated at 37 °C for a further 1–3 h and the emission of each well at 620 nm was detected using a Synergy H1 Hybrid multi-mode plate reader (BioTek, Agilent Technologies, Palo Alto, CA, USA) at excitation 580 nm. […] IC50 value estimates were determined using nonlinear regression to fit data to a curve of variable slope (four parameters) using the least-squares fitting method.

HCT116 Sec61α-G80W cells = experiment: Resazurin-based cell viability assay in HCT116 Sec61α-G80W cells; design: species or system human; conditions: 50 nM, 72 h
Source text: To confirm that Sec61α is the primary target of open-chain analogues and that this interaction underlies their cytotoxic effects, we next used a resazurin-based cell viability assay (Figure 3F) to compare the effects of each compound on the growth of HCT-116 cells that were wild-type for Sec61α (HCT116 Sec61α-WT) or carrying a heterozygous point mutant in SEC61A1 (HCT116 Sec61α-G80W) that confers resistance to Ipom-F, and reduces binding of mycolactone to the Sec61 translocon by mechanism that involves an alteration in translocon dynamics.
The human breast cancer cell line (MDA-MB-231) was maintained in a DMEM high glucose culture medium supplemented with 10% (v/v) fetal bovine serum (FBS) and 2 mM L-glutamine. […] Cytotoxicity assays were performed in triplicate sets as previously described and viable cells were counted using an automated cell counter (Bio-Rad TC20) immediately before each experiment. […] After that, all cells were incubated at 37 °C for a further 1–3 h and the emission of each well at 620 nm was detected using a Synergy H1 Hybrid multi-mode plate reader (BioTek, Agilent Technologies, Palo Alto, CA, USA) at excitation 580 nm. […] IC50 value estimates were determined using nonlinear regression to fit data to a curve of variable slope (four parameters) using the least-squares fitting method. […]

[1] = target: T1, Sec61-mediated protein translocation (membrane integration of Ii) (Canis lupus familiaris, UniProt P38377); experiment: In vitro membrane insertion assay of Ii with ER microsomes; format: biochemical, canine
T1 construct: cell-free translation system supplemented with ER microsomes derived from canine pancreas; from tissue; host or cells: canine pancreas ER microsomes (nuclease-treated); the Ii substrate was translated in vitro from T7-transcribed RNA
T1 sequence (P60058 whole entry): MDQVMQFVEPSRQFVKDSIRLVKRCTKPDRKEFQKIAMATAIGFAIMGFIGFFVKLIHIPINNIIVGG
T1 sequence (P38377 2-476): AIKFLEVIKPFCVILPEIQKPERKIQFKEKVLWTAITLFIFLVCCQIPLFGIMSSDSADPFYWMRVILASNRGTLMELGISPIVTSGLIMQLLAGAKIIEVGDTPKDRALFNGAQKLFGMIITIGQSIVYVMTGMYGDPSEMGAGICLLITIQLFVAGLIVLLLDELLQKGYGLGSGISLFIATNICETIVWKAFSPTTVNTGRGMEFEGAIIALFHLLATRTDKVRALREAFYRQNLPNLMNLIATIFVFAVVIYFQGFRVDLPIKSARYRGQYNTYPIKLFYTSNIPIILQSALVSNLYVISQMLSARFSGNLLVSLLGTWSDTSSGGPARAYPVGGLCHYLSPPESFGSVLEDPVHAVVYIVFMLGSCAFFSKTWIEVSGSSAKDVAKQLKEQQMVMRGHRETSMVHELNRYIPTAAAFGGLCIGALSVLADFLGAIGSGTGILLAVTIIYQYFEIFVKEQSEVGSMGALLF
T1 sequence (P60467 2-96, further chain): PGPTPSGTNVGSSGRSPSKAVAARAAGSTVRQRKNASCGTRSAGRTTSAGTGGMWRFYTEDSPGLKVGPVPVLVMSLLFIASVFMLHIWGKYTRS
Source text: Having previously established that the principal molecular basis for the cytotoxicity of Ipom-F is its strong, yet reversible, binding to Sec61α and the resultant wide-ranging blockade of Sec61-mediated protein translocation at the ER [13], we sought evidence that this mechanism also underlies the cytotoxic effects of 1 and other open-chain analogues. […] For comparative purposes, we analyzed the effects of 2 [13] and two closed-chain compounds: Ipom-F and the diester-modified analogue 22 [11] in parallel (Figure 3A).
Following the resolution of radiolabeled proteins by SDS-PAGE (Figure 3B), we used the efficiency with which the N-terminal domain of the type II integral membrane protein Ii (short form of HLA class II histocompatibility antigen gamma chain, isoform 1) was N-glycosylated inside the ER lumen as a robust reporter for the authentic membrane integration of this model Sec61-dependent protein client (Figure 3B, right upper panel, 0Gly versus 2 Gly forms).
(§1) Linear DNA of the short form of human HLA class II histocompatibility antigen gamma chain (Ii; P04232, […], residues 17–232) or human glycophorin C (GypC; P04921) were generated by PCR and transcribed into RNA using T7 RNA polymerase (Promega). Membrane insertion assays (20 µL, 1 h at 30 °C, containing 6.5% (v/v) nuclease-treated ER microsomes (from stock with OD280 = 44/mL)), endoglycosidase Hf (New England Biolabs) treatment, sample resolution by SDS-PAGE (16% polyacrylamide gels) and gel drying were performed as previously described. Following exposure to a phosphorimaging plate for 24–72 h, radiolabeled products were visualized using a Typhoon FLA-7000 (GE Healthcare, Tokyo, Japan) and the ratio of the signal intensity for the N-glycosylated (XGly) and non-glycosylated (0Gly) forms obtained using AIDA v.5.0 (Raytest Isotopenmeβgeräte). This value was then expressed relative to the matched DMSO control (set to 100%) in order to estimate the mean relative insertion (± SEM) from insertion experiments performed in triplicate (n = 3, biologically independent experiments). IC50 value estimates were determined in Prism 8 (GraphPad, San Diego, CA, USA) using nonlinear regression to fit data to a curve of variable slope (four parameters) using the least-squares fitting method, with the top and bottom plateaus of the curve defined as 100% and 7.67% (the mean of all data at 500 µM across all compounds), respectively.

[2] = tested on: membrane integration of GypC; experiment: In vitro membrane insertion assay of GypC with ER microsomes (selectivity control); format: biochemical, canine; conditions: 1 µM compound
Method: Following the successful synthesis of analogue 3, we first analyzed its effects on the in vitro membrane integration of our two model protein substrates, Ii and GypC (Figure 6A–C).
as §1, with “IC50 value estimates were determined in Prism 8 (GraphPad, San Diego, CA, USA) using nonlinear regression to fit data to a curve of variable slope (four parameters) using the least-squares fitting method, with the top and bottom plateaus of the curve defined as 100% and 7.67% (the mean of all data at 500 µM across all compounds), respectively.” left out

reduction in Ii membrane integration ([1]; 1 µM compound): 73–86%
IC50 ([1]; estimated from titration 500 µM–5 nM, read-out: IC50 (in vitro membrane integration of Ii)): 242 nM
SMILES: CC=C(C)C(=O)OC1C(O)C(OC2C(OC(CCCCC)CCCCC)OC(C)C(OC(C)=O)C2O)OC(COC(=O)CCC(=O)OCCCC)C1OC(=O)C=Cc1ccccc1 (stereo not drawn) [analogue 3]
cell death (HCT116 Sec61α-WT cells; 50 nM): ~ 58%
IC50 (HCT116 Sec61α-WT cells; Homo sapiens, HCT-116, titration 25 µM–1 nM, read-out: IC50 (cytotoxicity)): 40 nM
effect on cell viability (HCT116 Sec61α-G80W cells): cell death was not observed
effect on membrane integration of GypC [2]: did not affect
